# Measured values reported in patent US8168178B2, “Methods and compositions for regulating lymphocyte activity” (Curis, Inc., priority 1999, dated 2012).
# Experiments:
# [1] = tested on: thymocytes in wild-type FTOC; conditions: cited from earlier work
# [2] = tested on: thymocytes in wild-type FTOC; test: Fetal thymic organ culture (FTOC) of wild-type thymus, flow cytometry of thymocyte subsets; format: cell-based, mouse
# Method: Utilizing a fetal thymic organ culture (FTOC), the effects of Shh on T-cell maturation was determined. Briefly, immature thymocytes (CD4^−/CD8^− [DN]) were isolated from E14 thymus. The cells were culture for about 7 days, and the level of mature thymocytes, e.g., CD4^+/CD8^+ [DP], was assessed. In certain cultures, octyl-modified Shh was added to the culture; in other cultures, the anti-hedgehog 5E1 antibody was added.
# We have previously shown that treatment of wild-type FTOC with between 0.3 and 1 μg/ml recombinant Shh arrested thymocyte development at the DN stage (Outram et al., Immunity 13: 187, 2000). This arrest was not due to nonspecific toxicity of the recombinant Shh, but was a genuine biological effect, as it could be neutralized by addition of anti-Hh mAb. […] Therefore, we decided to determine whether treatment of FTOC with lower concentrations of Shh could promote thymocyte development. We treated wild-type FTOC for 5 days with 0.0005 μg/ml Shh or 0.5 μg/ml Shh. In a typical experiment, treatment with 0.5 μg/ml Shh arrested thymocyte development at the DN stage, and <1% of thymocytes were DP compared with 7.6% in the control cultures, whereas treatment with 0.0005 μg/ml Shh promoted thymocyte development, and 15.2% of cells were DP (FIG. 12A). […] Treatment with 0.5 μg/ml inhibited both the production of DP cells and the overall cell recovery, and this inhibition was neutralized by addition of anti-Hh mAb, confirming that the arrest in thymocyte development was not the result of non-specific toxicity of the reagent (FIG. 12B). Thus, in wild-type FTOC, treatment with different concentrations of recombinant Shh can produce distinct outcomes at the transition from DN to DP cells; high-dose Shh treatment arrests thymocyte development, but treatment with a 1000-fold lower dose promotes the production of DP cells (FIG. 12, A-C).
# (§1) Thymocyte suspensions were prepared by crushing thymi between two pieces of ground glass. Cells were stained using combinations of the following directly conjugated antibodies obtained from BD Pharmingen: anti-CD44FITC, anti-CD44Cychrome, anti-CD25 PE, anti-CD25 FITC, anti-CD4FITC, anti-CD8 Cychrome, anti-CD4PE, anti-CD4Cychrome, anti-CD8FITC, anti-CD45.1PE, anti-CD45.2FITC, anti-CD3PE and anti-TCR-βPE. Cell suspensions were stained with the antibodies for 30 minutes on ice in 50 μl of Dulbeccos modified medium (Life Technologies), supplemented with 5% FCS and 0.1% sodium azide. Cells were washed in this medium between incubations and prior to analysis on the FACScan (Becton Dickinson). Events were collected in list mode using CellQuest software and data analysed using CellQuest Pro software. Live cells were gated according to their FSC and SSC profiles. Data are representative of at least three experiments.
# (§2) Fetal thymi were dissected from E14.5 Shh +/+, +/− and −/− mice and cultured on 8 μm pore size Millipore filters (Millipore) in AIM-V serum free medium (Life Technologies). Thymi were cultured at 37° C. and 5% CO2 for 3 or 6 days or cultured in the presence of 0.5 μg/ml or 0.0005 μg/ml modified human Shh (Curis) for 7 days.
# [3] = tested on: thymocytes in Shh−/− FTOC; test: FTOC of E14.5 Shh−/− thymus explants treated with recombinant Shh; format: cell-based, mouse
# Method: As thymocyte cellularity and differentiation were reduced in Shh−/− thymi, we examined if we could promote thymocyte development in Shh−/− thymus explants by treatment with recombinant Shh. We have previously shown that treatment of wildtype FTOC with between 0.3 to 1 μg/ml recombinant Shh arrested thymocyte development at the DN stage (Outram et al., 2000). […] We treated Shh−/− thymus explants for 7 days with 0.5 or 0.0005 μg/ml recombinant Shh. Treatment with 0.5 μg/ml Shh inhibited differentiation from DN to DP cells. In a typical experiment, 5.2% of thymocytes were DP in the treated cultures compared with 36.6% in control cultures (FIG. 12, D and E). Thus, Shh−/− thymocytes were able to respond to a Shh signal in the same way as wildtype thymocytes, despite the fact that they had not been exposed to Shh in vivo. Although this high dose of Shh arrested thymocyte differentiation, some activation of the Hh signalling pathway is clearly necessary for normal thymocyte differentiation. We therefore treated Shh−/− explants with a 1000-fold lower dose of recombinant Shh (0.0005 μg/ml). Treatment of Shh−/− thymus explants with low-dose Shh promoted differentiation to DP cell: After 7 days in culture Shh−/− thymus explants treated with 0.0005 μg/ml Shh contained more DP thymocytes than untreated Shh−/− thymus explants −41.6% DP thymocytes and 32.7% DN thymocytes in treated Shh−/− thymus explants, compared with 36.6% DP cells and 43.1% DN cells in untreated control Shh−/− thymus cultures (FIG. 9b).
# We repeated these experiments by treating individual Shh−/− thymus lobes with recombinant Shh and comparing them to untreated cultures of the other lobe from the same embryo (summarized in FIG. 12F, cell production in each culture condition compared with that in the control lobe are shown on a log scale).
# as §1, §2
substance,measurement,setting,value
"Shh: hydrophobically modified human Shh signalling protein, N-octyl-malemide coupled to amino-terminal cysteine of bacterially derived N-shh (Curis)","thymocyte development at the DN3 stage, after TCRβ chain gene rearrangement",[1]; in vitro treatment of FTOC (Outram et al. 2000),arrested
same,thymocyte development at the DN stage,"[1]; wild-type FTOC, between 0.3 and 1 μg/ml recombinant Shh (Outram et al. 2000)",arrested
same,percentage of cells with markers indicative of immature thymocytes,"[2]; E14 thymus, about 7 days culture, high dose of Shh 0.5 μg/ml",increase
same,Shh concentration at which Hedgehog functions as an immunosuppressant,"[2]; FTOC, FIG. 12B",more than 0.1 μg/ml
same,promotion of thymocyte development,"[2]; wild-type FTOC, 0.00005 μg/ml",lost
same,cells that were DP,"[2]; wild-type FTOC, 5 days, 0.0005 μg/ml Shh, control cultures 7.6%",15.2%
same,thymocytes that were DP,"[2]; wild-type FTOC, 5 days, 0.5 μg/ml Shh, control cultures 7.6%",< 1%
same,DN thymocytes,"[3]; Shh−/− explants, 7 days, 0.0005 μg/ml Shh, untreated 43.1%",32.7%
same,thymocytes that were DP,"[3]; Shh−/− explants, 7 days, 0.5 μg/ml Shh, control cultures 36.6%",5.2%
same,production of DP cells,"[3]; Shh−/− explants, low dose treatment (0.0005 μg/ml), overall",more than doubled
same,cell number compared to control,"[3]; Shh−/− explants, low-dose Shh (0.0005 μg/ml)",increased
same,differentiation from DN to DP cells,"[3]; Shh−/− thymus explants, 0.5 μg/ml Shh",inhibited
same,overall cell production and differentiation to DP cell,"[3]; individual Shh−/− thymus lobes, high dose Shh",inhibited
